Laboratory results published in the NIST ThermoML archive (doi:10.1021/je100237h).

Conditions: Liquid; for viscosity: 101.33 kPa, Concentric cylinders viscometry; for mass density: Vibrating tube method

CCOC(=O)CCCCC(=O)OCC [diethyl hexanedioate]
Conditions | viscosity [mPa·s]
283.15 K | 4.57
288.15 K | 3.99
293.15 K | 3.51
298.15 K | 3.12
303.15 K | 2.79
308.15 K | 2.51
313.15 K | 2.28
318.15 K | 2.07
323.15 K | 1.9
328.15 K | 1.75
333.15 K | 1.61
338.15 K | 1.49
343.15 K | 1.39
348.15 K | 1.29
353.15 K | 1.21
358.15 K | 1.13
363.15 K | 1.06
368.15 K | 1
373.15 K | 0.94

CC(C)COC(=O)CCCCC(=O)OCC(C)C [diisobutyl adipate]
Conditions | viscosity [mPa·s]
283.15 K | 8.56
288.15 K | 7.22
293.15 K | 6.17
298.15 K | 5.33
303.15 K | 4.65
308.15 K | 4.09
313.15 K | 3.63
318.15 K | 3.24
323.15 K | 2.92
328.15 K | 2.64
333.15 K | 2.4
338.15 K | 2.19
343.15 K | 2.01
348.15 K | 1.85
353.15 K | 1.71
358.15 K | 1.59
363.15 K | 1.48
368.15 K | 1.38
373.15 K | 1.29

Conditions | mass density [kg/m3]
293.15 K, 100 kPa | 951.7
293.15 K, 10000 kPa | 958.4
293.15 K, 20000 kPa | 964.7
293.15 K, 30000 kPa | 970.6
293.15 K, 40000 kPa | 976.1
293.15 K, 50000 kPa | 981.4
293.15 K, 60000 kPa | 986.4
293.15 K, 70000 kPa | 991.2
293.15 K, 80000 kPa | 995.9
293.15 K, 90000 kPa | 1000.3
293.15 K, 100000 kPa | 1004.7
293.15 K, 110000 kPa | 1008.7
293.15 K, 120000 kPa | 1012.7
293.15 K, 130000 kPa | 1016.6
293.15 K, 140000 kPa | 1020.3
303.15 K, 100 kPa | 942.8
303.15 K, 10000 kPa | 949.9
303.15 K, 20000 kPa | 956.4
303.15 K, 30000 kPa | 962.6
303.15 K, 40000 kPa | 968.3
303.15 K, 50000 kPa | 974
303.15 K, 60000 kPa | 979.1
303.15 K, 70000 kPa | 984.2
303.15 K, 80000 kPa | 989
303.15 K, 90000 kPa | 993.4
303.15 K, 100000 kPa | 997.8
303.15 K, 110000 kPa | 1002.1
303.15 K, 120000 kPa | 1006.3
303.15 K, 130000 kPa | 1010.3
303.15 K, 140000 kPa | 1014
313.15 K, 100 kPa | 934.2
313.15 K, 10000 kPa | 941.6
313.15 K, 20000 kPa | 948.5
313.15 K, 30000 kPa | 954.9
313.15 K, 40000 kPa | 960.9
313.15 K, 50000 kPa | 966.6
313.15 K, 60000 kPa | 972.1
313.15 K, 70000 kPa | 977.2
313.15 K, 80000 kPa | 982
313.15 K, 90000 kPa | 986.7
313.15 K, 100000 kPa | 991.2
313.15 K, 110000 kPa | 995.6
313.15 K, 120000 kPa | 999.9
313.15 K, 130000 kPa | 1003.9
313.15 K, 140000 kPa | 1007.9
323.15 K, 100 kPa | 925.6
323.15 K, 10000 kPa | 933.4
323.15 K, 20000 kPa | 940.5
323.15 K, 30000 kPa | 947.3
323.15 K, 40000 kPa | 953.7
323.15 K, 50000 kPa | 959.7
323.15 K, 60000 kPa | 965.2
323.15 K, 70000 kPa | 970.6
323.15 K, 80000 kPa | 975.6
323.15 K, 90000 kPa | 980.5
323.15 K, 100000 kPa | 985.3
323.15 K, 110000 kPa | 989.8
323.15 K, 120000 kPa | 994.2
323.15 K, 130000 kPa | 998.3
323.15 K, 140000 kPa | 1003
333.15 K, 100 kPa | 916.7
333.15 K, 10000 kPa | 924.9
333.15 K, 20000 kPa | 932.4
333.15 K, 30000 kPa | 939.3
333.15 K, 40000 kPa | 945.8
333.15 K, 50000 kPa | 952
333.15 K, 60000 kPa | 957.8
333.15 K, 70000 kPa | 963.3
333.15 K, 80000 kPa | 968.5
333.15 K, 90000 kPa | 973.4
333.15 K, 100000 kPa | 978.2
333.15 K, 110000 kPa | 982.8
333.15 K, 120000 kPa | 987.3
333.15 K, 130000 kPa | 991.6
333.15 K, 140000 kPa | 995.7
343.15 K, 100 kPa | 908.1
343.15 K, 10000 kPa | 916.3
343.15 K, 20000 kPa | 924.3
343.15 K, 30000 kPa | 931.5
343.15 K, 40000 kPa | 938.3
343.15 K, 50000 kPa | 944.7
343.15 K, 60000 kPa | 950.8
343.15 K, 70000 kPa | 956.3
343.15 K, 80000 kPa | 961.8
343.15 K, 90000 kPa | 967
343.15 K, 100000 kPa | 971.8
343.15 K, 110000 kPa | 976.5
343.15 K, 120000 kPa | 981.1
343.15 K, 130000 kPa | 985.5
343.15 K, 140000 kPa | 989.7
353.15 K, 100 kPa | 899.3
353.15 K, 10000 kPa | 908
353.15 K, 20000 kPa | 916.2
353.15 K, 30000 kPa | 923.7
353.15 K, 40000 kPa | 930.9
353.15 K, 50000 kPa | 937.7
353.15 K, 60000 kPa | 943.9
353.15 K, 70000 kPa | 950
353.15 K, 80000 kPa | 955.5
353.15 K, 90000 kPa | 960.8
353.15 K, 100000 kPa | 965.7
353.15 K, 110000 kPa | 970.5
353.15 K, 120000 kPa | 974.9
353.15 K, 130000 kPa | 979.5
353.15 K, 140000 kPa | 983.7
363.15 K, 100 kPa | 890.2
363.15 K, 10000 kPa | 899.9
363.15 K, 20000 kPa | 908.7
363.15 K, 30000 kPa | 916.4
363.15 K, 40000 kPa | 923.7
363.15 K, 50000 kPa | 930.4
363.15 K, 60000 kPa | 936.9
363.15 K, 70000 kPa | 943.2
363.15 K, 80000 kPa | 948.9
363.15 K, 90000 kPa | 954.1
363.15 K, 100000 kPa | 959.4
363.15 K, 110000 kPa | 964.4
363.15 K, 120000 kPa | 969
363.15 K, 130000 kPa | 973.7
363.15 K, 140000 kPa | 978.1
373.15 K, 100 kPa | 882.3
373.15 K, 10000 kPa | 891.5
373.15 K, 20000 kPa | 900.5
373.15 K, 30000 kPa | 908.6
373.15 K, 40000 kPa | 916.5
373.15 K, 50000 kPa | 923.3
373.15 K, 60000 kPa | 930.1
373.15 K, 70000 kPa | 936.4
373.15 K, 80000 kPa | 942.2
373.15 K, 90000 kPa | 947.8
373.15 K, 100000 kPa | 953.2
373.15 K, 110000 kPa | 958.2
373.15 K, 120000 kPa | 963.2
373.15 K, 130000 kPa | 967.8
373.15 K, 140000 kPa | 972.5
383.15 K, 100 kPa | 873.2
383.15 K, 10000 kPa | 883.6
383.15 K, 20000 kPa | 893.1
383.15 K, 30000 kPa | 901.7
383.15 K, 40000 kPa | 909.6
383.15 K, 50000 kPa | 916.6
383.15 K, 60000 kPa | 923.5
383.15 K, 70000 kPa | 929.4
383.15 K, 80000 kPa | 935.7
383.15 K, 90000 kPa | 941.2
383.15 K, 100000 kPa | 946.7
383.15 K, 110000 kPa | 951.8
383.15 K, 120000 kPa | 957
383.15 K, 130000 kPa | 961.5
383.15 K, 140000 kPa | 966.1
393.15 K, 100 kPa | 864.7
393.15 K, 10000 kPa | 875.3
393.15 K, 20000 kPa | 885.1
393.15 K, 30000 kPa | 893.9
393.15 K, 40000 kPa | 902.1
393.15 K, 50000 kPa | 909.5
393.15 K, 60000 kPa | 916.6
393.15 K, 70000 kPa | 923.2
393.15 K, 80000 kPa | 929.5
393.15 K, 90000 kPa | 935.3
393.15 K, 100000 kPa | 941.1
393.15 K, 110000 kPa | 946.2
393.15 K, 120000 kPa | 951.4
393.15 K, 130000 kPa | 956.3
393.15 K, 140000 kPa | 960.9
403.15 K, 100 kPa | 856.8
403.15 K, 10000 kPa | 867.3
403.15 K, 20000 kPa | 877.3
403.15 K, 30000 kPa | 886.5
403.15 K, 40000 kPa | 894.8
403.15 K, 50000 kPa | 902.7
403.15 K, 60000 kPa | 909.9
403.15 K, 70000 kPa | 916.6
403.15 K, 80000 kPa | 923.3
403.15 K, 90000 kPa | 929.4
403.15 K, 100000 kPa | 935
403.15 K, 110000 kPa | 940.3
403.15 K, 120000 kPa | 945.5
403.15 K, 130000 kPa | 950.6
403.15 K, 140000 kPa | 955.4
